Reference: PubChem BioAssay (NCI)
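Five compound concentrations were applied to cells in 96-well plates for 48 hours; endpoints were derived by simple linear interpolation of the resulting dose-response curve. At the TGI there is no net growth.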

Assays:
Assay in all cases: NCI tumour cell line growth inhibition, 48 h
786-0 renal = test system: 786-0 renal
A498 renal = test system: A498 renal
A549 NSCLC = test system: A549 NSCLC
ACHN renal = test system: ACHN renal
CAKI-1 renal = test system: CAKI-1 renal
CCRF-CEM leukemia = test system: CCRF-CEM leukemia
COLO 205 colon = test system: COLO 205 colon
DLD-1 colon = test system: DLD-1 colon
DMS 114 small cell lung = test system: DMS 114 small cell lung
DMS 273 small cell lung = test system: DMS 273 small cell lung
EKVX NSCLC = test system: EKVX NSCLC
HCC-2998 colon = test system: HCC-2998 colon
HCT-116 colon = test system: HCT-116 colon
HCT-15 colon = test system: HCT-15 colon
HL-60(TB) leukemia = test system: HL-60(TB) leukemia
HOP-18 NSCLC = test system: HOP-18 NSCLC
HOP-62 NSCLC = test system: HOP-62 NSCLC
HT29 colon = test system: HT29 colon
IGROV1 ovarian = test system: IGROV1 ovarian
K-562 leukemia = test system: K-562 leukemia
KM20L2 colon = test system: KM20L2 colon
LOX IMVI melanoma = test system: LOX IMVI melanoma
LXFL 529 NSCLC = test system: LXFL 529 NSCLC
M14 melanoma = test system: M14 melanoma
M19-MEL melanoma = test system: M19-MEL melanoma
MOLT-4 leukemia = test system: MOLT-4 leukemia
NCI-H460 lung = test system: NCI-H460 lung
OVCAR-3 ovarian = test system: OVCAR-3 ovarian
OVCAR-4 ovarian = test system: OVCAR-4 ovarian
OVCAR-8 ovarian = test system: OVCAR-8 ovarian
RPMI-8226 leukemia = test system: RPMI-8226 leukemia
RXF-631 renal = test system: RXF-631 renal
SF-295 CNS = test system: SF-295 CNS
SF-539 CNS = test system: SF-539 CNS
SK-MEL-5 melanoma = test system: SK-MEL-5 melanoma
SK-OV-3 ovarian = test system: SK-OV-3 ovarian
SN12C renal = test system: SN12C renal
SNB-19 CNS = test system: SNB-19 CNS
SNB-78 CNS = test system: SNB-78 CNS
SW-620 colon = test system: SW-620 colon
TK-10 renal = test system: TK-10 renal
U251 CNS = test system: U251 CNS
UACC-257 melanoma = test system: UACC-257 melanoma
UACC-62 melanoma = test system: UACC-62 melanoma
XF 498 CNS = test system: XF 498 CNS
HOP-92 NSCLC = test system: HOP-92 NSCLC
KM12 colon = test system: KM12 colon
MALME-3M melanoma = test system: MALME-3M melanoma
NCI-H23 lung = test system: NCI-H23 lung
NCI-H522 lung = test system: NCI-H522 lung
OVCAR-5 ovarian = test system: OVCAR-5 ovarian
RXF 393 renal = test system: RXF 393 renal
SF-268 CNS = test system: SF-268 CNS
SK-MEL-2 melanoma = test system: SK-MEL-2 melanoma
SK-MEL-28 melanoma = test system: SK-MEL-28 melanoma
SNB-75 CNS = test system: SNB-75 CNS
SR leukemia = test system: SR leukemia
UO-31 renal = test system: UO-31 renal

Measured: TGI

CCc1c(C#N)c(=O)[nH]c(=O)n1CCN1CCN(C(=O)NCCCCCCNC(=O)N2CCN(CCn3c(CC)c(C#N)c(=O)[nH]c3=O)CC2)CC1
not listed: HOP-92 NSCLC | KM12 colon | MALME-3M melanoma | NCI-H23 lung | NCI-H522 lung | OVCAR-5 ovarian | RXF 393 renal | SF-268 CNS | SK-MEL-2 melanoma | SK-MEL-28 melanoma | SNB-75 CNS | SR leukemia | UO-31 renal
> 100 µM: all other assays above

CCOC(=O)NC(=O)c1cn(CCN2CCN(C(=O)NCCCCCCNC(=O)N3CCN(CCn4cc(C(=O)NC(=O)OCC)c(=O)[nH]c4=O)CC3)CC2)c(=O)[nH]c1=O
not listed: CAKI-1 renal | CCRF-CEM leukemia | DLD-1 colon | MOLT-4 leukemia
> 100 µM: all other assays above
